Experimental findings from ChEMBL document CHEMBL1201862, “PubChem BioAssay data set” (2004) are described below.

Among the test systems are NCI-H460; SNB-19; BT-549; SF-295; NCI-H23; Hs-578T; U-251; MDA-N; DU-145; RPMI-8226; MDA-MB-231; CCRF-CEM; A498; SK-MEL-2; 786-0; SR; UO-31; A549; SF-268; SK-MEL-28.
Holding throughout (test): DTP human tumour cell line panel, 48 h

Each structure is given as a SMILES string.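 Values below derive from 48-hour exposures of cells grown in 96-well plates, with endpoints linearly interpolated between the two concentrations bracketing the appropriate inhibition level. Abbreviation: GI50, concentration required for 50% inhibition of growth.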 The source made the active and inactive calls. Rule as the data show it: active = GI50 up to about 1.1 µM and inactive = higher.

In general, GI50 refers to the concentration giving 50% growth inhibition. With `c1ccc(-c2nnc(SCc3c[nH]c4ccccc34)n2-c2ccccc2)cc1`, the GI50 was 12.1 µM (inactive) in the test on NCI-H460; 42.1 µM (inactive) in the test with SNB-19; 17.3 µM (inactive) with BT-549; 19.6 µM (inactive) in the test with SF-295; 41.4 µM (inactive) in the test on NCI-H23; 17.4 µM (inactive) in the test with Hs-578T. The GI50 in the test with U-251 was 24.2 µM (inactive); with MDA-N, 78 µM (inactive); with DU-145, 40.3 µM (inactive); with RPMI-8226 it was > 100 µM (inactive); in the test on MDA-MB-231, 29.4 µM (inactive); in the test on CCRF-CEM it was 25.9 µM (inactive). For the same compound, the GI50 in the test on A498 is 19.3 µM (inactive); in the test with SK-MEL-2, 29.2 µM (inactive); in the test with 786-0, 31.8 µM (inactive); in the test on SR it was 11.7 µM (inactive); with UO-31, > 100 µM (inactive); in the test on A549, 34.4 µM (inactive). For the same compound, the figures for the GI50 with SF-268 and with SK-MEL-28 were 38.2 µM (inactive) and 75.3 µM (inactive), respectively.

As for `CC1OC(OC2C(O[C@H]3CC[C@@]4(C)C(=CC[C@H]5[C@@H]6C[C@@H]7O[C@]8(CC[C@@H](C)CO8)[C@@H](C)[C@@H]7[C@@]6(C)CC[C@@H]54)C3)OC(CO)C(O)C2OC2OC(CO)C(O)C(O)C2O)C(O)C(O)C1O` (stereo not given in full), the GI50 in the test with NCI-H460 is 2.22 µM (inactive); in the test with SNB-19, 1.87 µM (inactive); with BT-549, 2.07 µM (inactive); in the test on SF-295 it was 2.14 µM (inactive); with NCI-H23, 1.89 µM (inactive); in the test on Hs-578T, 1.73 µM (inactive). The GI50 was 1.89 µM (inactive) in the test with U-251; 1.72 µM (inactive) with MDA-N; 2.08 µM (inactive) with DU-145; 2.54 µM (inactive) in the test with RPMI-8226; 1.47 µM (inactive) with MDA-MB-231; 14.3 µM (inactive) in the test on CCRF-CEM. Also, the GI50 with A498 was 1.44 µM (inactive); with SK-MEL-2 it was 1.72 µM (inactive); in the test with 786-0, 1.77 µM (inactive); in the test on SR, > 100 µM (inactive); with UO-31, 1.94 µM (inactive); in the test with A549 it was 1.81 µM (inactive). For the same compound, the GI50 in the test on SF-268 and in the test with SK-MEL-28 was 1.9 µM (inactive) in each case.

As for `Nc1nc(Cl)cc(NCC2(CO)CCC(O)C2)n1` (stereo not given), the GI50 in the test with NCI-H460, in the test on SNB-19, in the test with BT-549, with SF-295, in the test with NCI-H23 and with Hs-578T was > 100 µM (inactive) throughout. The GI50 in the test with U-251, in the test with MDA-N, in the test on DU-145, with RPMI-8226, with MDA-MB-231 and in the test on CCRF-CEM was > 100 µM (inactive) throughout. Moreover, the GI50 in the test with A498, in the test with SK-MEL-2, in the test on 786-0, with SR, in the test on UO-31 and in the test on A549 was > 100 µM (inactive) each time. Besides, the GI50 in the test on SF-268 and in the test with SK-MEL-28 was > 100 µM (inactive) in each case.

As for `N#CC1(C#N)C2(c3ccccc3)OC(c3ccccc3)(c3cc4ccccc4cc32)C1(C#N)C#N`, the GI50 was 18 µM (inactive) in the test on NCI-H460; 15.5 µM (inactive) with SNB-19; > 10 µM (inactive) with BT-549; 15.8 µM (inactive) in the test on SF-295; 11.9 µM (inactive) with NCI-H23; 25.8 µM (inactive) in the test with Hs-578T. The GI50 was 16.3 µM (inactive) in the test with U-251; 16.9 µM (inactive) with MDA-N; 14.5 µM (inactive) with DU-145; 1.28 µM (inactive) in the test with RPMI-8226; 15.7 µM (inactive) with MDA-MB-231; 1.08 µM (active) with CCRF-CEM. The GI50 was 19.5 µM (inactive) in the test on A498; 19.4 µM (inactive) with SK-MEL-2; 8.51 µM (inactive) in the test with 786-0; 33.3 µM (inactive) with SR; 24 µM (inactive) in the test with UO-31; 14.7 µM (inactive) in the test with A549. Moreover, the GI50 was 17 µM (inactive) in the test on SF-268 and 12.4 µM (inactive) with SK-MEL-28.

Turning to `COc1cc2c(cc1OC)C(Cl)C(c1ccc(Br)cc1)=C2Cl` (stereo not given), the GI50 was 8.32 µM (inactive) in the test with NCI-H460; 16.7 µM (inactive) in the test with SNB-19; 2.31 µM (inactive) with BT-549; 14.9 µM (inactive) in the test on SF-295; 9.95 µM (inactive) with NCI-H23; 6.19 µM (inactive) in the test on Hs-578T. Moreover, the GI50 was 10.2 µM (inactive) in the test on U-251; 3.23 µM (inactive) in the test on MDA-N; 11.3 µM (inactive) in the test with DU-145; 2.52 µM (inactive) in the test on RPMI-8226; 9.64 µM (inactive) in the test on MDA-MB-231; 10.7 µM (inactive) in the test on CCRF-CEM. The GI50 in the test with A498 is 15.2 µM (inactive); in the test on SK-MEL-2 it was 9.08 µM (inactive); with 786-0 it was 3.94 µM (inactive); with SR, 2.62 µM (inactive); with UO-31 it was 8.65 µM (inactive); in the test with A549 it was 14.1 µM (inactive). Further, the GI50 is 11.1 µM (inactive) in the test with SF-268 and 14.8 µM (inactive) with SK-MEL-28.

Consider `Cc1cccc(/N=N/c2c(C)nn(C(=O)CC(=O)Nc3ccccc3)c2C)c1`, for which the GI50 in the test with NCI-H460, in the test with SNB-19, with BT-549, in the test on SF-295, in the test with NCI-H23 and in the test with Hs-578T was > 100 µM (inactive) each time. Also, the GI50 in the test with U-251, in the test on MDA-N, with DU-145, in the test on RPMI-8226, in the test with MDA-MB-231 and in the test with CCRF-CEM was > 100 µM (inactive) throughout. Further, the GI50 with A498, in the test with SK-MEL-2, in the test on 786-0, in the test with SR, in the test with UO-31 and with A549 was > 100 µM (inactive) throughout. For the same compound, the GI50 in the test on SF-268 and in the test with SK-MEL-28 was > 100 µM (inactive) throughout.

Turning to `CCN1CCC(O)(c2ccc(Oc3ccc(Cl)cc3)cc2)C(C(=O)c2ccc(Oc3ccc(Cl)cc3)cc2)C1` (stereo not given), the GI50 is 3.76 µM (inactive) in the test on NCI-H460; 14.5 µM (inactive) with SNB-19; 14.5 µM (inactive) with BT-549; 12.4 µM (inactive) in the test with SF-295; 11.7 µM (inactive) with NCI-H23; 20.7 µM (inactive) in the test with Hs-578T. Besides, the GI50 is > 10 µM (inactive) in the test on U-251; 14 µM (inactive) with MDA-N; 16.5 µM (inactive) in the test with DU-145; 3.37 µM (inactive) with RPMI-8226; 14.7 µM (inactive) in the test with MDA-MB-231; 3.44 µM (inactive) in the test with CCRF-CEM. In addition, the GI50 was 8.61 µM (inactive) in the test with A498; 21.9 µM (inactive) in the test on SK-MEL-2; 3.55 µM (inactive) in the test on 786-0; 3.48 µM (inactive) with SR; 13.6 µM (inactive) with UO-31; 6.97 µM (inactive) in the test on A549. For the same compound, the GI50 in the test on SF-268 was 17.8 µM (inactive); in the test with SK-MEL-28 it was 20.5 µM (inactive).

With `O=[N+]([O-])C(=C1NCCN1)/C(Cl)=C(\Cl)Br`, the GI50 in the test on NCI-H460 is 51.6 µM (inactive); in the test with SNB-19, > 100 µM (inactive); in the test on BT-549, 36.1 µM (inactive); with SF-295, > 100 µM (inactive); with NCI-H23, > 49.8 µM (inactive); in the test on Hs-578T, > 100 µM (inactive). The GI50 in the test with U-251 is 49.3 µM (inactive); with MDA-N, 34.5 µM (inactive); with DU-145, > 100 µM (inactive); in the test on RPMI-8226, 22.4 µM (inactive); with MDA-MB-231, > 60.3 µM (inactive); in the test with CCRF-CEM it was 7.1 µM (inactive). Further, the GI50 was > 44.9 µM (inactive) in the test with A498; 45.6 µM (inactive) in the test on SK-MEL-2; 17.6 µM (inactive) in the test on 786-0; 21.5 µM (inactive) in the test with SR; 84.1 µM (inactive) in the test on UO-31; > 100 µM (inactive) in the test with A549. Moreover, the GI50 in the test on SF-268 is 35.2 µM (inactive); with SK-MEL-28 it was 32 µM (inactive).

Consider `COCC12CCC(OC)C34C5CC6(O)C(OC)CC(OC(C)=O)(C5C6OC(=O)c5ccccc5)C(C(OC)C13)C4N(C)C2` (stereo not given), for which the GI50 in the test with NCI-H460, in the test on SNB-19, in the test on BT-549, in the test with SF-295, in the test with NCI-H23 and in the test with Hs-578T was > 100 µM (inactive) throughout. The GI50 in the test with U-251, with MDA-N, in the test on DU-145, in the test on RPMI-8226, in the test with MDA-MB-231 and in the test on CCRF-CEM was > 100 µM (inactive) in each case. Also, the GI50 with A498 is > 100 µM (inactive); in the test with SK-MEL-2, > 100 µM (inactive); with 786-0, > 100 µM (inactive); in the test with SR, 85.3 µM (inactive); in the test on UO-31, > 100 µM (inactive); in the test with A549, > 100 µM (inactive). Moreover, the GI50 with SF-268 and with SK-MEL-28 was > 100 µM (inactive) throughout.

As to `COc1ccc(Nc2nc3cc(C(F)(F)F)ccc3n3cccc23)cc1OC`, the GI50 in the test on NCI-H460 was 10.4 µM (inactive); in the test with SNB-19 it was 19.4 µM (inactive); in the test on BT-549 it was 17.3 µM (inactive); in the test on SF-295, 10.3 µM (inactive); in the test with NCI-H23, 17.6 µM (inactive); in the test on Hs-578T, 29.2 µM (inactive). For the same compound, the GI50 in the test with U-251 was 15.2 µM (inactive); in the test on MDA-N it was 12.6 µM (inactive); in the test on DU-145, 20.3 µM (inactive); in the test with RPMI-8226, 13.6 µM (inactive); with MDA-MB-231, 17.8 µM (inactive); in the test on CCRF-CEM, 10.7 µM (inactive). Also, the GI50 in the test on A498 is 14.7 µM (inactive); in the test with SK-MEL-2, 15.5 µM (inactive); in the test on 786-0, 8.15 µM (inactive); in the test on SR it was 9.89 µM (inactive); with UO-31, 22.8 µM (inactive); in the test on A549, 14.1 µM (inactive). The GI50 with SF-268 was 26.7 µM (inactive); in the test with SK-MEL-28, 28.2 µM (inactive).
